What was measured:
[1] = test system: U46619-induced ex vivo platelet aggregation; experiment: U46619-induced ex vivo platelet aggregation after oral dosing in cyanomolgus monkeys; design: species or system cyanomolgus monkey; conditions: 30 mg/kg
Protocol: (§1) Such inhibition of platelet aggregation is determined using methodology known in the art, e.g. in vitro in the presence of a compound of the invention in human platelet rich plasma, or by measuring the inhibition of aggregation seen in plasma obtained from a mammal previously administered a compound of the invention, e.g. orally or intravenously when compared to controls. Platelet aggregation is measured in a Born aggregometer and platelet rich plasma is prepared from venous blood e.g. as described in Br. J. Haematol. 43, 637 (1979). Suitable test animals are anesthetized rats or guinea pigs and unanesthetized rabbits or cyanomolgus monkeys.

thromboxane-A2 receptor [2] = target: T1, thromboxane-A2 receptor (Homo sapiens, UniProt P21731); experiment: inhibition of U-46619 induced aggregation in human platelet rich plasma; type: cell-based; conditions: in vitro
T1 sequence (P21731 1-343): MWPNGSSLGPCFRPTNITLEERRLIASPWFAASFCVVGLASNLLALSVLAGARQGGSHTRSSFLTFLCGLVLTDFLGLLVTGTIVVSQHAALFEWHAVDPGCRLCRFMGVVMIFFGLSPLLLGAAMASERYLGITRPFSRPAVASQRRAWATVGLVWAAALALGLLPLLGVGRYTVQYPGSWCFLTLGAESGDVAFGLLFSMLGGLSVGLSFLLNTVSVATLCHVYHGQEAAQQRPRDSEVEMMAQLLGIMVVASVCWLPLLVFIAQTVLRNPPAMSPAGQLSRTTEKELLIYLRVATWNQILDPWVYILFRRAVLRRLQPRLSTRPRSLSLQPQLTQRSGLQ
Protocol: (§2) The inhibition of thromboxane-A2 receptor activity is determined by measuring the inhibition of U-46619 induced platelet aggregation of aspirinated human washed platelets and in human platelet rich plasma. U-46619 is (15S)-hydroxy-11-α,9-α(epoxymethanol)-prosta-(5Z,13E)-dienoic acid, a throm boxane-A2 receptor agonist, as described by Di Minno et at, Thromb. Haemost. 45, 103 (1981).
as §1

thromboxane synthetase = experiment: serum thromboxane B2, 6-keto-PGF1α and PGE2 levels after oral dosing in cyanomolgus monkeys; type: in vivo, cyanomolgus monkey; conditions: 30 mg/kg
thromboxane-A2 receptor [3] = target: T1, thromboxane-A2 receptor; experiment: inhibition of U-46619-induced aggregation of aspirinated washed human platelets; type: cell-based; design: U-46619 induced platelet aggregation of aspirinated human washed platelets and in human platelet rich plasma; endogenous in cells; host or cells: human platelets (aspirinated washed platelets in A1; platelet rich plasma in A2); conditions: in vitro
Protocol: Acad. Sci. 76, 4097 (1979).
as §2

[4] = test system: U46619-induced platelet aggregation; experiment: inhibition of U46619-induced platelet aggregation after oral dosing in guinea pigs; type: in vivo, guinea pig
Protocol: as §1

[5] = concomitant with serum thromboxane B2 inhibition

IC50 (thromboxane-A2 receptor [2]) [nM] | IC50 (thromboxane-A2 receptor [3]) [nM] | SMILES | duration of total inhibition of U46619-induced ex vivo platelet aggregation [1] | time of return of ex vivo platelet aggregation to predose values [1] [h] | inhibition of U46619-induced ex vivo platelet aggregation ([1]; for at least 8 hours) | duration of inhibition of serum thromboxane B2 (thromboxane synthetase) [h] | 6-keto-PGF1α level (thromboxane synthetase; [5]) | PGE2 level (thromboxane synthetase; [5]) | inhibition of U46619-induced platelet aggregation 1 hour post dose ([4]; conscious guinea pigs, oral, 0.3 mg/kg, 1 hour post dose) | increase of the concentration of thromboxane-mimetic required to induce 50% maximal aggregation ([4]; guinea pigs, oral dose of 0.23 mg/kg) [fold]
250 | 26.5 | O=C(O)CC/C=C\CC[C@@H]1[C@@H](OCc2ccc(-c3ccccc3)cc2)CO[C@@H]1c1cccnc1 [Example 1, (Z)-(2S,3S,4R)-7-[4-(1,1'-biphenyl-4-ylmethoxy)-2-(3-pyridyl)tetrahydrofuran-3-yl]-4-heptenoic acid] | at least 8 hours | 24 | totally inhibited | 24 | elevations | elevations | effectively inhibits | 50
~400 | 28 | O=C(O)CCC=CCCC1C(OCc2ccc(-c3ccccc3)cc2)COC1c1cccnc1 (stereo not drawn) [Example 8(a), (Z)-(2α,3β,4β)-7-[4-(biphenyl-4-yl-methoxy)-2-(3-pyridyl)tetrahydrofuran-3-yl)hept-4-enoic acid] |  |  |  |  |  |  |  | 

Reference: patent publication US5371096A, “(3-pyridyl)tetrafuran-2-yl substituted carboxylic acids” (Ciba-Geigy Corporation, priority 1993, dated 1994)
